Tests used:
[1] = biological target: T1, EGFR L858R+T790M, endogenous (NCI-H1975) (Homo sapiens, UniProt P00533, L858R/T790M); assay: pEGFR Y1068 ELISA assay, NCI-H1975 cells; format: cell-based; conditions: inhibition of phosphorylation of EGFR at Tyr1068; NCI-H1975 NSCLC cells; 2 hr compound incubation
T1 construct: NCI-H1975 (EGFR L858R+T790M, endogenous); host or cells: NCI-H1975
Method: (§1) Phosphorylation of EGFR at Y1068 was measured by PathScan® Phospho-EGF Receptor (Try1068) Sandwich ELISA kit (#7240, Cell Signaling Technology®, Danvers, Mass.). The PathScan® Phospho-EGF Receptor (Tyr1068) Sandwich ELISA Kit is a solid phase sandwich enzyme-linked immunosorbent assay (ELISA) that detects endogenous levels of phospho-EGF Receptor (Tyr1068) protein. […] All cells were cultured according to ATCC recommendations. A549, NCI-H1975, PC9, and NCI-H3255 cells were grown in RPMI media (Invitrogen, Carlsbad, Calif.) supplemented with 10% FBS (Sigma, St Louis, Mo.), and with 1% Penn/Strep (Invitrogen). PC9-DRH cells were grown in RPMI with 10% FBS and 1 μM dacomitinib.
(§2) Cells were plated at 40,000/well in complete culture media (50 μL/well) on the bottom of clear tissue culture treated microtiter plates (#3595, Corning Inc, Corning, N.Y.) and allowed to adhere overnight at 37° C., 5% CO2. The following day, compound dilution plates were prepared in 96 well clear V-bottom 0.5 mL polypropylene block plates (#3956, Corning, Inc). Each compound was prepared as a DMSO stock solution (10 mM). Compounds were tested in duplicate on each plate, with an 11-point serial dilution curve (1:3 dilution). Compound treatment (50 μL) was added from the compound dilution plate to the cell plate. […] Plates were then incubated for 2 hr at 37° C., 5% CO2. For A549 (EGFR wildtype) assay, cells were plated in full-serum (10%) media for 24 hr prior to compound treatment; cells were treated in full serum media as described and then stimulated for 10 min with EGF (40 ng/mL/starvation media, Invitrogen). Immediately prior to the end of the incubation, ice-cold lysis buffer was prepared (1× Cell Lysis Buffer (#9803, Cell Signaling Technology), 1 mM sodium orthovanadate (Na3VO4, #96508, Sigma), 1 mM phenylmethanesulfonyl fluoride (PMSF, 52332, CalBiochem/EMD Chemicals), complete Mini EDTA-free Protease Inhibitor Cocktail Tablet (1 tablet/10 mL, #11836170001, Roche, Indianapolis, Ind.), and PhosSTOP Phosphatase Inhibitor Cocktail Tablet (1 tablet/10 mL, #04906837001, Roche) in pure water. At the end of 2 hr, media was flicked off and cells were washed once with ice-cold 1 mM Na3VO4 in PBS (100 μL/well, Invitrogen). The wash was then flicked off and ice-cold lysis buffer was added to the cells (50 μL/well). The plate was shaken for 20-30 min at 4° C. to completely lyse the cells. Sample diluent (50 μL/well) was added to the ELISA plate, and the lysate (50 μL) was diluted into the sample diluent in each well of the ELISA plate. Plates were sealed and incubated overnight at 4° C. with shaking. The next day, wells were washed four times with 1× Wash Buffer; plates were taped on lint-free paper after the final wash prior to adding Add Detection Antibody (green, 100 μL/well) to each well and incubating for 1 hr at 37° C. After incubation, wells were washed as described. HRP-Linked secondary antibody (red, 100 μL/well) was added to each well and incubated for 30 min at 37° C. After incubation, the wells were washed as described. TMB Substrate (100 μL/well) was added to each well and the plate incubated for 10 min at 37° C. or 30 min at rt maximum. Stop Solution (100 μL/well) was added to each well at the end of the incubation and plates were shaken gently for a few seconds. Absorbance was read at 450 nm within 30 min after addition of Stop Solution on a PerkinElmer EnVision Excite Multilabel Reader Method for Absorbance or on a Molecular Devices SpectraMax^384 Reader for absorbance. Data were analyzed using a four-parameter fit in Microsoft Excel.

[2] = biological target: T2, EGFR wildtype, endogenous (A549) (Homo sapiens, UniProt P00533); assay: pEGFR Y1068 ELISA assay, A549 cells; format: cell-based; conditions: inhibition of phosphorylation of EGFR at Tyr1068; A549 NSCLC cells; 2 hr compound incubation, then stimulated 10 min with EGF (40 ng/mL)
T2 construct: A549 (EGFR wildtype, endogenous); host or cells: A549 (stimulated with EGF)
T2 sequence (P00533 25-1210): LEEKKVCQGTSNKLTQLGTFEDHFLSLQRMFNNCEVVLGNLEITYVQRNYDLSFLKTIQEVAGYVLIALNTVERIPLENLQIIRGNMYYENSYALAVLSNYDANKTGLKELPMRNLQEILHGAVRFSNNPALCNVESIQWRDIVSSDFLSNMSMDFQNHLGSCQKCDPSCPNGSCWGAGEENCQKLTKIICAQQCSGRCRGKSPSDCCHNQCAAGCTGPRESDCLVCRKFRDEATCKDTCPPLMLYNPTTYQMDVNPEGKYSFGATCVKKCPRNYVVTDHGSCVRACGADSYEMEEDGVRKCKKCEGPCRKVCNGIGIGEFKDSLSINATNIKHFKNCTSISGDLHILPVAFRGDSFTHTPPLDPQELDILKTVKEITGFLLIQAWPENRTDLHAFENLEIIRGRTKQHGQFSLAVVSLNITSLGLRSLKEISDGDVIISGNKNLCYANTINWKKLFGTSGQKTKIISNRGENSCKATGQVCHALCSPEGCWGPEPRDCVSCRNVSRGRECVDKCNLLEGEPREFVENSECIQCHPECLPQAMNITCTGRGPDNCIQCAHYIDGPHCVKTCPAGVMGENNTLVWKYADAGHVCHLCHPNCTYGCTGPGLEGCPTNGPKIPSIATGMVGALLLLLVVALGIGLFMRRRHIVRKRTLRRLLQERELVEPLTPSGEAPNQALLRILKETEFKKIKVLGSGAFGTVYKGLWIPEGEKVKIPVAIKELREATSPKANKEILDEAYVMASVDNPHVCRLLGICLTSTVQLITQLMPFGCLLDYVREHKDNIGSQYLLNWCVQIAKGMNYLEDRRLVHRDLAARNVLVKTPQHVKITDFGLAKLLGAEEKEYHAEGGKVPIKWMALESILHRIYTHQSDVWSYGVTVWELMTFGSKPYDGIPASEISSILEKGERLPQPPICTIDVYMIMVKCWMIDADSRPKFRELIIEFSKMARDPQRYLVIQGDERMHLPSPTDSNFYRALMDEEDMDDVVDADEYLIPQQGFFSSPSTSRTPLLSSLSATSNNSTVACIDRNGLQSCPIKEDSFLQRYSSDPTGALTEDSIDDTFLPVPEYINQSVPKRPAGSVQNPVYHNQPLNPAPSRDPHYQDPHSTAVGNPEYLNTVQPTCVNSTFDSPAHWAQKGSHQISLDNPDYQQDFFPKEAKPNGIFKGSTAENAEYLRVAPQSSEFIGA
Method: as §1, §2

T1 sequence (P00533 25-1210 T790M/L858R): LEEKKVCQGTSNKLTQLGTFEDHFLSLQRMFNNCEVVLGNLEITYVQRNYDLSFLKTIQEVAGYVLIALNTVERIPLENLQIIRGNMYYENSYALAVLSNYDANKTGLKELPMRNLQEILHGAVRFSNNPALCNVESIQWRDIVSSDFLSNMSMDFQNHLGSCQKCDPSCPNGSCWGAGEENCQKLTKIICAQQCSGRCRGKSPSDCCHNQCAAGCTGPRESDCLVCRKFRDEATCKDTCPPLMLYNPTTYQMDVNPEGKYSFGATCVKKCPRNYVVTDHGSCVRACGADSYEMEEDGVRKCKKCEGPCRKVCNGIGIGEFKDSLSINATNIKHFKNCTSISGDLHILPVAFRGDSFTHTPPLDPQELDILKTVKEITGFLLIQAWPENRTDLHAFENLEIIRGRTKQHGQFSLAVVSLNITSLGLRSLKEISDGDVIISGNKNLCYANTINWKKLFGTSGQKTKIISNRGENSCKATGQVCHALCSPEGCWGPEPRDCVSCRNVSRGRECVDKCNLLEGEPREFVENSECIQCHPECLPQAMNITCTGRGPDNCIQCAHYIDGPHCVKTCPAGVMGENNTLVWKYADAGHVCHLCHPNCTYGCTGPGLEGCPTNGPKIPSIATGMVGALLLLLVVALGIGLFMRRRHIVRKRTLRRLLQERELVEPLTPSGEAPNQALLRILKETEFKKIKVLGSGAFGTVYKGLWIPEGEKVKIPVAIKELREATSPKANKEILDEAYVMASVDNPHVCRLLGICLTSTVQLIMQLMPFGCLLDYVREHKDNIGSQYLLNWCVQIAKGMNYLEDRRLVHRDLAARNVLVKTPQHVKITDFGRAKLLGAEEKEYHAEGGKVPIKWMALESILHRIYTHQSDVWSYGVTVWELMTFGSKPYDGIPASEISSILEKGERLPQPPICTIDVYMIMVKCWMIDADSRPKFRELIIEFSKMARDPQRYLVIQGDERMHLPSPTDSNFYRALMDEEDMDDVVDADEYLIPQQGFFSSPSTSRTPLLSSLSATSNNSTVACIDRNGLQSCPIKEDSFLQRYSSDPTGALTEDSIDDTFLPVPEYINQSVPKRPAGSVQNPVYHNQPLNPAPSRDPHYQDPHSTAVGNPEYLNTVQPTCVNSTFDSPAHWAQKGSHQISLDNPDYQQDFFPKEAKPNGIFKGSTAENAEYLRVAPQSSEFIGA

| Structure (SMILES) | IC50 [1] [nM] | IC50 [2] [nM] |
| --- | --- | --- |
| C=CC(=O)N[C@@H]1CN(c2nc(Nc3ccc(N4CCN(C)CC4)cc3)c3ncn(C(C)C)c3n2)C[C@H]1OC (relative stereo) [Example 47, N-((trans)-1-(9-isopropyl-6-((4-(4-methylpiperazin-1-yl)phenyl)amino)-9H-purin-2-yl)-4-methoxypyrrolidin-3-yl)acrylamide] | 14 |  |
| C=CC(=O)N1C[C@H](Nc2nc(Nc3cnn(C)c3)c3ncn(C(C)C)c3n2)[C@@H](F)C1 (relative stereo) [Example 58, 1-((trans)-3-fluoro-4-((9-isopropyl-6-((1-methyl-1H-pyrazol-4-yl)amino)-9H-purin-2-yl)amino)pyrrolidin-1-yl)prop-2-en-1-one] | 58 | 983 |
| C=CC(=O)N1C[C@@H]2CN(c3nc(Nc4cnn(C)c4)c4ncn(C(C)C)c4n3)C[C@]2(F)C1 (relative stereo) [Example 73, 1-(cis-3a-fluoro-5-(9-isopropyl-6-((1-methyl-1H-pyrazol-4-yl)amino)-9H-purin-2-yl)hexahydropyrrolo[3,4-c]pyrrol-2(1H)-yl)prop-2-en-1-one] | 9 | 92 |
| C=CC(=O)N1C[C@H](Nc2nc(Nc3cnn(C)c3)c3ncn(C(C)C)c3n2)[C@@H](F)C1 (single isomer, unassigned) [Example 30, 1-((trans*)-3-fluoro-4-((9-isopropyl-6-((1-methyl-1H-pyrazol-4-yl)amino)-9H-purin-2-yl)amino)pyrrolidin-1-yl)prop-2-en-1-one] | 82 | 3850 |
| C=CC(=O)N1CCC(Oc2nc(Nc3cnn(C)c3)c3ncn(C(C)C)c3n2)C1 (stereo in doubt) [Example 59, (R)-1-(3((9-isopropyl-6-((1-methyl-1H-pyrazol-4-yl)amino)-9H-purin-2-yl)oxy)pyrrolidin-1-yl)prop-2-en-1-one] | 162 | 4050 |
| C=CC(=O)N[C@H]1CCN(c2nc(Nc3cn(C)nc3OC)c3ncn(C(C)C)c3n2)C1 [Example 11, (S)-N-(1-(9-isopropyl-6-((3-methoxy-1-methyl-1H-pyrazol-4-yl)amino)-9H-purin-2-yl)pyrrolidin-3-yl)acrylamide] | 162 | 2840 |
| C=CC(=O)N[C@H]1CCN(c2nc(Nc3ccc(N4CCN(C)CC4)cc3)c3ncn(C4CCC4)c3n2)C1 [Example 15] | 55 | 117 |
| C=CC(=O)N(C)C1CN(c2nc(Nc3ccc(N4CCN(C)CC4)cc3)c3ncn(C(C)C)c3n2)C1 [Example 24, N-(1-(9-isopropyl-6-((4-(4-methylpiperazin-1-yl)phenyl)amino)-9H-purin-2-yl)azetidin-3-yl)-N-methylacrylamide] | 39 | 1140 |
| C=CC(=O)N1CC[C@@H](Oc2nc(Nc3ccc(N4CCN(C)CC4)cc3)c3ncn(C(C)C)c3n2)C1 [Example 26, (R)-1-(3-((9-isopropyl-6-((4-(4-methylpiperazin-1-yl)phenyl)amino)-9H-purin-2-yl)oxy)pyrrolidin-1-yl)prop-2-en-1-one] | 25 | 682 |
| C=CC(=O)N1CC[C@@H](Nc2nc(Nc3ccc(N4CCN(C)CC4)cc3)c3ncn(C(C)C)c3n2)C1 [Example 27, (R)-1-(3-((9-isopropyl-6-((4-(4-methylpiperazin-1-yl)phenyl)amino)-9H-purin-2-yl)amino)pyrrolidin-1-yl)prop-2-en-1-one] | 29 | 387 |
| C=CC(=O)N1C[C@@H]2CN(c3nc(Nc4cnn(C)c4)c4ncn(C)c4n3)C[C@@H]2C1 [Example 34, 1-((cis)-5-(9-methyl-6-((1-methyl-1H-pyrazol-4-yl)amino)-9H-purin-2-yl)hexahydropyrrolo[3,4-c]pyrrol-2(1H)-yl)prop-2-en-1-one] | 161 | 2670 |
| C=CC(=O)N[C@H]1CCN(c2nc(Nc3ccc(N4CCN(C)CC4)cc3)c3ncn(CC)c3n2)C1 [Example 35, (S)-N-(1-(9-ethyl-6-((4-(4-methylpiperazin-1-yl)phenyl)amino)-9H-purin-2-yl)pyrrolidin-3-yl)acrylamide] | 11 | 95 |
| C=CC(=O)N[C@H]1CCN(c2nc(Nc3cnn(C)c3)c3ncn(C4(C)CC4)c3n2)C1 [Example 60, (S)-N-(1-(6-((1-methyl-1H-pyrazol-4-yl)amino)-9-(1-methylcyclopropyl)-9H-purin-2-yl)pyrrolidin-3-yl)acrylamide] | 317 | 1390 |
| C=CC(=O)N[C@H]1CN(c2nc(Nc3cnn(CCN(C)C)c3)c3ncn(C(C)C)c3n2)C[C@@H]1F [Example 67, N-((3S,4S)-1-(6-((1-(2-(dimethylamino)ethyl)-1H-pyrazol-4-yl)amino)-9-isopropyl-9H-purin-2-yl)-4-fluoropyrrolidin-3-yl)acrylamide] | 8 | 90 |
| C=CC(=O)N[C@@H]1CN(c2nc(Nc3cnn(CCN(C)C)c3)c3ncn(C(C)(C)C)c3n2)C[C@H]1F [Example 68, N-((3R,4R)-1-(9-(tert-butyl)-6-((1-(2-(dimethylamino)ethyl)-1H-pyrazol-4-yl)amino)-9H-purin-2-yl)-4-fluoropyrrolidin-3-yl)acrylamide] | 18 | 707 |
| C=CC(=O)N[C@H]1CCN(c2nc(Nc3cnn([C@H]4CCN(C)C4)c3)c3ncn(C(C)C)c3n2)C1 [Example 69, N—((S)-1-(9-isopropyl-6-((1-((S)-1-methylpyrrolidin-3-yl)-1H-pyrazol-4-yl)amino) -9H-purin-2-yl)pyrrolidin-3-yl)acrylamide] | 37 | 712 |
| C=CC(=O)N[C@@H]1CN(c2nc(Nc3cnn(C4CCN(C)CC4)c3)c3ncn(C(C)(C)C)c3n2)C[C@H]1F [Example 70, N-((3R,4R)-1-(9-(tert-butyl)-6-((1-(1-methylpiperidin-4-yl)-1H-pyrazol-4-yl)amino) -9H-purin-2-yl)-4-fluoropyrrolidin-3-yl)acrylamide] | 29 | 609 |
| C=CC(=O)N[C@@H]1CN(c2nc(Nc3cnn(C4CCN(C)CC4)c3)c3ncn(C(C)C)c3n2)C[C@H]1F [Example 71, N-((3R,4R)-4-fluoro-1-(9-isopropyl-6-((1-(1-methylpiperidin-4-yl)-1H-pyrazol-4-yl)amino)-9H-purin-2-yl)pyrrolidin-3-yl)acrylamide] | 20 | 167 |
| C=CC(=O)N[C@@H]1CN(c2nc(Nc3cn(CC(C)O)nc3OC)c3ncn(C)c3n2)C[C@H]1F (stereo partly drawn) [Example 83, N-((3R,4R)-4-fluoro-1-(6-((1-(2-hydroxypropyl)-3-methoxy-1H-pyrazol-4-yl)amino)-9-methyl-9H-purin-2-yl)pyrrolidin-3-yl)acrylamide] | 132 | 3450 |

Second part, the compound after the results:

| IC50 [1] [nM] | IC50 [2] [nM] | Structure (SMILES) |
| --- | --- | --- |
| 1040 | ≥ 10000 | C=CC(=O)N1CCCC(c2nc(Nc3cnn(C)c3)c3ncn(C(C)C)c3n2)C1 (single isomer, unassigned) [Example 6, 1-(3-(9-isopropyl-6-((1-methyl-1H-pyrazol-4-yl)amino)-9H-purin-2-yl)piperidin-1-yl)prop-2-en-1-one] |
| 846 | ≥ 10000 | C=CC(=O)NC1(C)CCN(c2nc(Nc3ccc(N4CCN(C)CC4)cc3)c3ncn(C(C)C)c3n2)C1 (stereo not shown) [Example 10, N-(1-(9-isopropyl-6-((4-(4-methylpiperazin-1-yl)phenyl)amino)-9H-purin-2-yl)-3-methylpyrrolidin-3-yl)acrylamide] |
| 285 | ≥ 10000 | C=CC(=O)N[C@H]1C[C@H](Oc2nc(Nc3ccc(N4CCN(C)CC4)cc3)c3ncn(C(C)C)c3n2)C1 [Example 14, N-((trans)-3-((9-isopropyl-6-((4-(4-methylpiperazin-1-yl)phenyl)amino)-9H-purin-2-yl)oxy)cyclobutyl)acrylamide] |
| 39 | 1420 | C=CC(=O)NC1CN(c2nc(Nc3ccc(N4CCN(C)CC4)cc3)c3ncn(C(C)C)c3n2)C1 [Example 23, N-(1-(9-isopropyl-6-((4-(4-methylpiperazin-1-yl)phenyl)amino)-9H-purin-2-yl)azetidin-3-yl)acrylamide] |
| 48 | 723 | C=CC(=O)N(C)[C@H]1C[C@H](Nc2nc(Nc3ccc(N4CCN(C)CC4)cc3)c3ncn(C(C)C)c3n2)C1 [Example 28, N-((trans)-3-((9-isopropyl-6-((4-(4-methylpiperazin-1-yl)phenyl)amino)-9H-purin-2-yl)amino)cyclobutyl)-N-methylacrylamide] |
| 76 | 1350 | C=CC(=O)N(C)C1CN(c2nc(Nc3cnn(C)c3)c3ncn(C(C)C)c3n2)C1 [Example 31, N-(1-(9-isopropyl-6((1-methyl-1H-pyrazol-4-yl)amino)-9H-purin-2-yl)azetidin-3-yl)-N-methylacrylamide] |
| 65 | 1230 | C=CC(=O)N1CC(C)(Nc2nc(Nc3cnn(C)c3)c3ncn(C(C)C)c3n2)C1 [Example 32, 1-(3-((9-isopropyl-6-((1-methyl-1H-pyrazol-4-yl)amino)-9H-purin-2-yl)amino)-3-methylazetidin-1-yl)prop-2-en-1-one] |
| 391 | 7610 | C=CC(=O)N[C@H]1CCN(c2nc(Nc3cn(C)nc3C)c3ncn(C(C)C)c3n2)C1 [Example 37, (S)-N-(1-(6-((1,3-dimethyl-1H-pyrazol-4-yl)amino)-9-isopropyl-9H-purin-2-yl)pyrrolidin-3-yl)acrylamide] |
| 204 | 4360 | C=CC(=O)N[C@H]1CCN(c2nc(Nc3ccc(N4CCN(C)CC4)cc3)c3ncn(C(C)CO)c3n2)C1 (stereo partly drawn) [Example 48, N-((3S)-1-(9-(1-hydroxypropan-2-yl)-6-((4-(4-methylpiperazin-1-yl)phenyl)amino) -9H-purin-2-yl)pyrrolidin-3-yl)acrylamide] |

Reference: patent publication US9290496B2, “Purine derivatives” (PFIZER INC., priority 2013, dated 2016)
